The source of these data is paper PMC8041284, “Tunable Methacrylamides for Covalent Ligand Directed Release Chemistry” (Journal of the American Chemical Society, 2021).

Molecules are shown by their SMILES. Where a SMILES comes first, the peptide text is derived from it. [ ]: non-standard residue; d: D form. pGlu = O=C1CC[C@@H](C(=O)O)N1; Thz = O=C(O)[C@@H]1CSCN1

The target in the test is BTK (Homo sapiens, UniProt Q06187). Put plainly: biochemical. The conditions noted are these: read-out: BTK inhibition (%), 0.75 uM BTK, […] probe 3l, 15 min preincubation.

One may read the inhibition as the change of the read-out against control, counted positive when it falls.

Chain of BTK (Q06187 402-655 limits assumed): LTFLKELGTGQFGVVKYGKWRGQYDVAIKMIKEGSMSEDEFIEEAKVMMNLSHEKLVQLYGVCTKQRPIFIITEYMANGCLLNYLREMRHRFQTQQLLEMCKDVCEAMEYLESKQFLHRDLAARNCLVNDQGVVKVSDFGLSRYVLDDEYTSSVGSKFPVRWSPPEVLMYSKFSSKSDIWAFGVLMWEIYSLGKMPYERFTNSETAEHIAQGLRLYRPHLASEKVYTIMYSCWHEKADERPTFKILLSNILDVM

On to `C[C@@H]1O[C@@H](O[C@H]2[C@H](Oc3cc(O)c4c(c3)O[C@H](c3ccc(O)cc3)CC4=O)O[C@H](CO)[C@@H](O)[C@@H]2O)[C@H](O)[C@H](O)[C@H]1O` [PCM-0088327], for which the inhibition at 10 µM is -7%.

With `O=c1cc(-c2ccccc2)oc2cc(O)cc(O)c12` [PCM-0088446], the inhibition at 10 µM turned out to be 34.2%.

On to `COc1cc(O)c2c(c1)C(=O)c1cc(C)cc(O)c1C2=O` [PCM-0088700], for which the inhibition at 10 µM was 11.1%.

As for `COc1cc([C@H]2Oc3cc([C@H]4Oc5cc(O)cc(O)c5C(=O)[C@@H]4O)ccc3O[C@@H]2CO)ccc1O` [PCM-0088703], the inhibition at 10 µM stood at 24.1%.

For `O=C(CCc1ccc(O)cc1)c1c(O)cc(O)cc1O[C@@H]1O[C@H](CO)[C@@H](O)[C@H](O)[C@H]1O` [PCM-0089058], the inhibition at 10 µM worked out at 4.7%.

For the compound `O=C(O)C(O)Cc1ccc(O)c(O)c1` (centres unmarked) [PCM-0089145], the inhibition at 10 µM was 18.7%.

Consider `C[C@@H]1O[C@@H](Oc2c(-c3cc(O)c(O)c(O)c3)oc3cc(O)cc(O)c3c2=O)[C@H](O)[C@H](O)[C@H]1O` [PCM-0089676], for which the inhibition at 10 µM is -2.3%.

In the case of `C[C@@H]1C(=O)O[C@H]2C[C@@]34[C@H]5C[C@@H](C(C)(C)C)[C@]36[C@@H](OC(=O)[C@@H]6O)O[C@@]4(C(=O)O5)[C@]21O` [PCM-0089814], the inhibition at 10 µM is -7.8%.

`COc1ccc(O)cc1` [PCM-0090031]: the inhibition at 10 µM was 12.5%.

With `Nc1ncnc2c1ncn2[C@@H]1O[C@H](CO)[C@@H](O)[C@H]1O` [PCM-0090045], the inhibition at 10 µM stood at 14%.

With `CCN(CC)CCOc1ccc(C(=C(Cl)c2ccccc2)c2ccccc2)cc1` [PCM-0090069], the inhibition at 10 µM was 13.2%.

As to `CC[C@@H](CO)NCCN[C@@H](CC)CO` [PCM-0090100], the inhibition at 10 µM was 29.6%.

Take `CN(C)c1ccc(C(=C2C=CC(=[N+](C)C)C=C2)c2ccc(N(C)C)cc2)cc1` [PCM-0090111]: the inhibition at 10 µM worked out at 116%.

With `NC(=O)c1ccc[n+]([C@@H]2O[C@H](COP(=O)([O-])OP(=O)(O)OC[C@H]3O[C@@H](n4cnc5c(N)ncnc54)[C@H](O)[C@@H]3O)[C@@H](O)[C@H]2O)c1` [PCM-0090146], the inhibition at 10 µM is -13.6%.

Consider `CC1=C(/C=C/C(C)=C/C=C/C(C)=C/C=C/C=C(C)/C=C/C=C(C)/C=C/C2=C(C)CCCC2(C)C)C(C)(C)CCC1` [PCM-0090171], for which the inhibition at 10 µM came to 24.7%.

For `O=C(O)c1ccccc1O` [PCM-0090179], the inhibition at 10 µM is -16.3%.

For the compound `Nc1nc(=S)c2[nH]cnc2[nH]1` [PCM-0090185], the inhibition at 10 µM was -1.6%.

For `COc1c(C)c2c(c(O)c1C/C=C(\C)CCC(=O)O)C(=O)OC2` [PCM-0090203], the inhibition at 10 µM stood at 19.3%.

For `O=C(O)P(=O)(O)O` [PCM-0090233], the inhibition at 10 µM came out at 1.6%.

Consider `CN(C)CCc1c[nH]c2ccc(Cn3cncn3)cc12` [PCM-0090241], for which the inhibition at 10 µM was -3.1%.

For the compound `COc1cc2c(N3CCN(C(=O)Nc4ccc(OC(C)C)cc4)CC3)ncnc2cc1OCCCN1CCCCC1` [PCM-0090254], the inhibition at 10 µM is -17%.

For the compound `CN1C(C(=O)Nc2ccccn2)=C(O)c2sc(Cl)cc2S1(=O)=O` [PCM-0090258], the inhibition at 10 µM was -0.9%.

Consider `C#CCN[C@@H]1CCc2ccccc21` [PCM-0090264], for which the inhibition at 10 µM was -9.3%.

In the case of `C[C@@H]1CC(=O)NN=C1c1ccc(NN=C(C#N)C#N)cc1` [PCM-0090272], the inhibition at 10 µM is 21.8%.

Take `CCC(C)(C)c1ccc(CC(C)CN2C[C@@H](C)O[C@@H](C)C2)cc1` (some centres unmarked) [PCM-0090274]: the inhibition at 10 µM is -31.9%.

With `COc1ccc(-c2ccc3cc(C(=O)O)ccc3c2)cc1C12CC3CC(CC(C3)C1)C2` [PCM-0090276], the inhibition at 10 µM turned out to be 29%.

For the compound `Cc1ccc(Nc2c(F)cccc2Cl)c(CC(=O)O)c1` [PCM-0090280], the inhibition at 10 µM was 6.9%.

`O=C(O)c1ccccc1` [PCM-0090294]: the inhibition at 10 µM is -1.6%.

Consider `C/C=C/c1ccc(OC)cc1` [PCM-0090331], for which the inhibition at 10 µM was determined as 18.7%.

Turning to `COC(=O)[C@H](c1ccccc1Cl)N1CCc2sccc2C1` [PCM-0090332], the inhibition at 10 µM came to 2.3%.

Consider `Cc1ccnc2c1NC(=O)c1cccnc1N2C1CC1` [PCM-0090346], for which the inhibition at 10 µM is -3.1%.

`CC(=O)Oc1ccccc1C(=O)Nc1ncc([N+](=O)[O-])s1` [PCM-0090347]: the inhibition at 10 µM turned out to be 17.9%.

Consider `CN1CCC(=C2c3ccccc3CCc3cccnc32)CC1` [PCM-0090351], for which the inhibition at 10 µM is -2.8%.

As for `O=P(O)(O)C(O)(Cc1cccnc1)P(=O)(O)O` [PCM-0090360], the inhibition at 10 µM is -3.4%.

For the compound `C[N+](C)(C)C[C@H](O)CC(=O)[O-]` [PCM-0090364], the inhibition at 10 µM came to 10.1%.

Turning to `CCOc1nc2cccc(C(=O)OCc3oc(=O)oc3C)c2n1Cc1ccc(-c2ccccc2-c2noc(=O)[nH]2)cc1` [PCM-0090373], the inhibition at 10 µM is 24.1%.

Turning to `COc1ccc(C(=O)CC(=O)c2ccc(C(C)(C)C)cc2)cc1` [PCM-0090378], the inhibition at 10 µM is -3.9%.

With `CCCCC1=NC2(CCCC2)C(=O)N1Cc1ccc(-c2ccccc2-c2nn[nH]n2)cc1` [PCM-0090383], the inhibition at 10 µM amounted to 4.3%.

For `CCOc1nc2cccc(C(=O)OC(C)OC(=O)OC3CCCCC3)c2n1Cc1ccc(-c2ccccc2-c2nn[nH]n2)cc1` (centres unmarked) [PCM-0090385], the inhibition at 10 µM was found to be 53.7%.

Consider `Cc1nc(-c2ccc(OCC(C)C)c(C#N)c2)sc1C(=O)O` [PCM-0090390], for which the inhibition at 10 µM is -3.4%.

Turning to `CCN1CCN(c2cc3c(cc2F)c(=O)c(C(=O)O)cn3C2CC2)CC1` [PCM-0090392], the inhibition at 10 µM was -11.9%.

Regarding `COc1cc2c(cc1OC)C(=O)C(CC1CCN(Cc3ccccc3)CC1)C2` (centres unmarked) [PCM-0090394], the inhibition at 10 µM was -23.8%.

Turning to `COc1c(C)c2c(c(O)c1C/C=C(\C)CCC(=O)OCCN1CCOCC1)C(=O)OC2` [PCM-0090398], the inhibition at 10 µM was -15.2%.

With `CC(C)n1c(/C=C/[C@H](O)C[C@H](O)CC(=O)O)c(-c2ccc(F)cc2)c2ccccc21` [PCM-0090402], the inhibition at 10 µM stood at 15.9%.

Take `CCCC[C@H](CC)COC(=O)/C=C/c1ccc(OC)cc1` [PCM-0090405]: the inhibition at 10 µM is 6.2%.

Consider `CN(C)CCc1c[nH]c2ccc(CS(=O)(=O)N3CCCC3)cc12` [PCM-0090415], for which the inhibition at 10 µM is -0.8%.

Regarding `CCCCC(=O)N(Cc1ccc(-c2ccccc2-c2nn[nH]n2)cc1)[C@H](C(=O)O)C(C)C` [PCM-0090417], the inhibition at 10 µM was -27.2%.

Take `CC(C)c1nc(N(C)S(C)(=O)=O)nc(-c2ccc(F)cc2)c1/C=C/[C@@H](O)C[C@@H](O)CC(=O)O` [PCM-0090418]: the inhibition at 10 µM was -4.7%.

Turning to `CC#CCn1c(N2CCC[C@@H](N)C2)nc2c1c(=O)n(Cc1nc(C)c3ccccc3n1)c(=O)n2C` [PCM-0090431], the inhibition at 10 µM is -3.1%.

Take `CN(C)c1ccc2nc3ccc(=[N+](C)C)cc-3sc2c1` [PCM-0090465]: the inhibition at 10 µM was found to be 42.8%.

Regarding `O=C1CN2Cc3c(ccc(Cl)c3Cl)N=C2N1` [PCM-0090482], the inhibition at 10 µM is -15.2%.

In the case of `Nc1nc(F)nc2c1ncn2[C@@H]1O[C@H](COP(=O)(O)O)[C@@H](O)[C@@H]1O` [PCM-0090501], the inhibition at 10 µM is -8.6%.

With `COc1cccc2c1C(=O)c1c(O)c3c(c(O)c1C2=O)C[C@@](O)(C(=O)CO)C[C@@H]3O[C@H]1C[C@H](N)[C@@H](O)[C@H](C)O1` [PCM-0090504], the inhibition at 10 µM is 45.1%.

For `CCC(=O)NCC[C@@H]1CCc2ccc3c(c21)CCO3` [PCM-0090528], the inhibition at 10 µM is -20.2%.

On to `CC1=CC(=O)NS(=O)(=O)O1` [PCM-0090549], for which the inhibition at 10 µM was -14%.

On to `CNCC(=O)c1ccc(O)c(O)c1` [PCM-0090552], for which the inhibition at 10 µM is 10.9%.

`COC(=O)/C=C/C(=O)OC` [PCM-0090553]: the inhibition at 10 µM is 1.4%.

Turning to `CCC(C)n1ncn(-c2ccc(N3CCN(c4ccc(OC[C@H]5CO[C@](Cn6cncn6)(c6ccc(Cl)cc6Cl)O5)cc4)CC3)cc2)c1=O` (some centres unmarked) [PCM-0090573], the inhibition at 10 µM is -13.6%.

Regarding `CN(C)CCc1c[nH]c2ccc(C[C@H]3COC(=O)N3)cc12` [PCM-0090594], the inhibition at 10 µM is 17.1%.

With `CNCC[C@H](Oc1cccc2ccccc12)c1cccs1` [PCM-0090599], the inhibition at 10 µM was -1.6%.

For `OC[C@@H](O)[C@@H](O[C@@H]1O[C@H](CO)[C@H](O)[C@H](O)[C@H]1O)[C@H](O)[C@@H](O)CO` [PCM-0090607], the inhibition at 10 µM was determined as 17.8%.

Consider `CN1CC(=O)N=C1N` [PCM-0090615], for which the inhibition at 10 µM is -3.4%.

Regarding `O=S(=O)(O)NC1CCCCC1` [PCM-0090618], the inhibition at 10 µM was 3.9%.

Regarding `C[N+](C)(C)CC(O)CC(=O)O` (centres unmarked) [PCM-0090641], the inhibition at 10 µM is -11.7%.

Turning to `CC(=O)Nc1ccccc1` [PCM-0090657], the inhibition at 10 µM was -14.5%.

Take `C[C@H](Cn1cnc2c(N)ncnc21)OCP(=O)(O)O` [PCM-0090661]: the inhibition at 10 µM was -11.7%.

Turning to `O=c1oc2c(O)c(O)cc3c(=O)oc4c(O)c(O)cc1c4c23` [PCM-0090664], the inhibition at 10 µM is 15.3%.

Regarding `O=S(=O)(O)CCSSCCS(=O)(=O)O` [PCM-0090667], the inhibition at 10 µM was -8.6%.

Take `CCOC(=O)CC(=O)N1CCSC1COc1ccccc1OC` (centres unmarked) [PCM-0090669]: the inhibition at 10 µM is -8.6%.

`O=C1CC[C@@H](C(=O)N2CSC[C@H]2C(=O)O)N1` [PCM-0090672] ([pGlu]-[Thz]-OH): the inhibition at 10 µM is 11.7%.

`O=S(=O)(c1cccc2cnccc12)N1CCCNCC1` [PCM-0090675]: the inhibition at 10 µM was -17.9%.

Regarding `O=C(O)CSCC(=O)NC1CCSC1=O` (centres unmarked) [PCM-0090679], the inhibition at 10 µM is -10.9%.

As for `CCCCCCCCCCCCCCCCOP(=O)([O-])OCC[N+](C)(C)C` [PCM-0090698], the inhibition at 10 µM was -72.3%.

`O=c1oc2cc(O)ccc2s1` [PCM-0090709]: the inhibition at 10 µM is -13.2%.

As to `O=C(O)CCCCC1CCSS1` (centres unmarked) [PCM-0090722], the inhibition at 10 µM was -16.3%.

Turning to `O=C(O)c1cc(=O)[nH]c(=O)[nH]1` [PCM-0090751], the inhibition at 10 µM is -11.7%.

For the compound `CCOC(=O)OC(C)OC1=C(C(=O)Nc2ccccn2)N(C)S(=O)(=O)c2ccccc21` (centres unmarked) [PCM-0090753], the inhibition at 10 µM was found to be 2.1%.
